Data as given in US20100204224A1, “AZACYCLIC COMPOUNDS AS INHIBITORS OF SENSORY NEURONE SPECIFIC SODIUM CHANNELS” (priority 2005, published 2010).
Read-outs that look alike come from different tables or passages of the source.

Target: T1, human Nav1.8 (hNav1.8) ion channel (Homo sapiens, UniProt Q9Y5Y9)
T1 construct: expressed in transfected cells
Assay: Inhibition of human Nav1.8 stably expressed in SH-SY-5Y cells (membrane potential dye fluorescence assay)
Format: cell-based
Conditions: FLIPR membrane potential dye, 10 μM pyrethroid, 250 nM TTX, test concentration range 100 μM-0.05 μM
Procedure: Inhibition of Human Nav1.8 stably expressed in SH-SY-5Y Cells
A SH-SY-5Y neuroblastoma cell line stably expressing the human Nav1.8 (hNav1.8) ion channel was constructed. This cell line has been used to develop a medium to high throughput assay for determining the ability of test compounds to inhibit membrane depolarisation mediated via the hNav1.8 channel.
SH-SY-5Y hNav1.8 are grown in adherent monolayer culture using 50:50 Ham's F-12/EMEM tissue culture medium supplemented with 15% (v/v) foetal bovine serum; 2 mM L-glutamine, 1% NEAR and 600 μg·ml^−1 Geneticin sulphate. Cells are removed from the tissue culture flask using trypsin/EDTA and re-plated into black walled, clear bottom 96-well assay plates at 50,000 cells·well^−1 24 hours prior to assay.
On the day of assay the cell assay plates are washed to remove cell culture medium using a sodium free assay buffer (145 mM tetramethyl ammonium chloride; 2 mM calcium chloride; 0.8 mM magnesium chloride hexahydrate; 10 mM HEPES; 10 mM glucose; 5 mM potassium chloride, pH 7.4). Fluorescent membrane potential dye solution (FLIPR™ membrane potential dye, Molecular Devices Corporation), containing 10 μM of a pyrethroid to prevent channel inactivation and 250 nM tetrodotoxin (TTX) to reduce interference from TTX-sensitive sodium channels present in the cell line. Test compound, initially dissolved in dimethyl sulfoxide but further diluted in sodium free buffer, is added to achieve the final test concentration range of 100 μM-0.05 μM.
Cell plates are incubated for 30 minutes at room temperature to allow equilibration of dye and test compound. Plates are then transferred to a fluorescence plate reader for fluorescence measurement using an excitation wavelength of 530 nm whilst measuring fluorescence emission at 565 nm. Baseline fluorescence levels are first determined before the addition of a sodium containing buffer (220 mM sodium chloride; 2 mM calcium chloride; 0.8 mM magnesium chloride hexahydrate; 10 mM HEPES; 10 mM glucose; 5 mM potassium chloride. pH 7.4) to cause membrane depolarisation in those cells where channel block has not been effected (final sodium concentration=72.5 mM). Membrane depolarisation is registered by an increase in fluorescence emission at 565 nm.
The change in fluorescence seen in each test well upon the addition of sodium containing buffer is calculated relative to the baseline fluorescence for that well. This figure is then used for calculating the IC50 for each test compound.

[1] = SH-SY-5Y hNav1.8 cells, read-out: hNav1.8 IC50
[2] = hNav1.8 IC50, SH-SY-5Y hNav1.8 cells

T1 sequence (Q9Y5Y9 whole entry): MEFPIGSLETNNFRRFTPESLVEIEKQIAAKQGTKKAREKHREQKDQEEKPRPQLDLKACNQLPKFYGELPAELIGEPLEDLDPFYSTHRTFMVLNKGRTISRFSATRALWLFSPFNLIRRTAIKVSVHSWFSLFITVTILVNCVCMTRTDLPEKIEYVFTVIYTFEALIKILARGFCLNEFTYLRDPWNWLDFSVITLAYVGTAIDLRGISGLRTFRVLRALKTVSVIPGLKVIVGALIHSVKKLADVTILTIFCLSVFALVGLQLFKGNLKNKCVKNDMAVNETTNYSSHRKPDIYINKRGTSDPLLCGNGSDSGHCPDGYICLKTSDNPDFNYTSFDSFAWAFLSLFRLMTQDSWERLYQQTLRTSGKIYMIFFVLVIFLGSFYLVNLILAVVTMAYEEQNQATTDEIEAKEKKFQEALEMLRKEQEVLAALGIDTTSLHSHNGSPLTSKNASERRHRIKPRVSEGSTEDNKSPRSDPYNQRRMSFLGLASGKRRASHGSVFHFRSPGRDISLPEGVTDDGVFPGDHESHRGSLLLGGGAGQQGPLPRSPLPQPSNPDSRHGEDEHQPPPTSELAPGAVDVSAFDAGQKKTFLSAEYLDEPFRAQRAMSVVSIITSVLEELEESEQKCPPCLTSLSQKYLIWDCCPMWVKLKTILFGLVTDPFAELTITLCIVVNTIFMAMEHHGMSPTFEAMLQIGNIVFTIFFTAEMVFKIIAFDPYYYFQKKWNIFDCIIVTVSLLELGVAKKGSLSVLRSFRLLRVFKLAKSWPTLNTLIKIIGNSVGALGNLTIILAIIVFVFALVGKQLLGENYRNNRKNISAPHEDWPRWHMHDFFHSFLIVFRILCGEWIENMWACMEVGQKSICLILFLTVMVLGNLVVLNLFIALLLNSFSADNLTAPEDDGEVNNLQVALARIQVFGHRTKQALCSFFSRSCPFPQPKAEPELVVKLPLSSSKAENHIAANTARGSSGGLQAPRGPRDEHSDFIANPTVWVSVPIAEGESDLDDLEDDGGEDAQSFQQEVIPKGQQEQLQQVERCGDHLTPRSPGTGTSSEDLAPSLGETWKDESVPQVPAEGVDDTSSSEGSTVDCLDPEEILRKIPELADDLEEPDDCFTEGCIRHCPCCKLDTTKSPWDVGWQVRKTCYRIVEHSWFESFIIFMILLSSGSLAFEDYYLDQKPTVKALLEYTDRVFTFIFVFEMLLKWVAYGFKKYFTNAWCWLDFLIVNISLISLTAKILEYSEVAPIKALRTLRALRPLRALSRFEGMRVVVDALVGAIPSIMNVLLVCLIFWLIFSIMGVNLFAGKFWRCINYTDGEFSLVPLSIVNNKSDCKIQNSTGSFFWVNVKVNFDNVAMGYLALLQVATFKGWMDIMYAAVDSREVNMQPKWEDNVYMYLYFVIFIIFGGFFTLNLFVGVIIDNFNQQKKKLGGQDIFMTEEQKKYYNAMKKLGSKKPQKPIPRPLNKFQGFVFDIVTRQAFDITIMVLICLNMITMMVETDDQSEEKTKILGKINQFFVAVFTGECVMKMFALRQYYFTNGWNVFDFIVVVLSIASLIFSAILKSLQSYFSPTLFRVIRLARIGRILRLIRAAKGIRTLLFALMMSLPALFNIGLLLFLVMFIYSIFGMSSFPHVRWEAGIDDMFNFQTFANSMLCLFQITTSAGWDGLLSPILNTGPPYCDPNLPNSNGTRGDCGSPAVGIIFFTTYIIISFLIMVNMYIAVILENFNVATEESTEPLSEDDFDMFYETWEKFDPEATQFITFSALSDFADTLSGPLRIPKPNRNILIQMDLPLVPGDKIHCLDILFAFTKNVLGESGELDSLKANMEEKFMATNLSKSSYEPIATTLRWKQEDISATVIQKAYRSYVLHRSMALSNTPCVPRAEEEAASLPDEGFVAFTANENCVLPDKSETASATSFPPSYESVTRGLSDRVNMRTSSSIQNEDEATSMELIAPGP

| Compound | IC50 [1] [nM] | IC50 [2] [nM] |
| --- | --- | --- |
| 1-{5-[1-(2,5-Dichloro-phenyl)-ethyl]-2,5-diaza-bicyclo[2.2.1]hept-2-yl}-2-[4-(4-fluoro-phenoxy)-phenyl]-ethanone [Example 157] | ≥ 30000 | – |
| CC(c1ccccc1Cl)N1CC2CC1CN2C(=O)Nc1ccc(Oc2ccccc2)cc1 (single isomer, unassigned) [Example 11, 5-[1-(2-Chloro-phenyl)-ethyl]-2,5-diaza-bicyclo[2.2.1]heptane-2-carboxylic acid (4-phenoxy-phenyl)-amide] | 1800 | – |
| CC(c1ccccc1Cl)N1CC2CC1CN2C(=O)Nc1ccc(Oc2ccccc2)cc1 (single isomer, unassigned) [Example 12, 5-[1-(2-Chloro-phenyl)-ethyl]-2,5-diaza-bicyclo[2.2.1]heptane-2-carboxylic acid (4-phenoxy-phenyl)-amide] | 360 | – |
| Cc1ccccc1C(C)N1CC2CC1CN2C(=O)Nc1ccc(Oc2ccc(F)cc2)cc1 (single isomer, unassigned) [Example 29, 5-(1-o-Tolyl-ethyl)-2,5-diaza-bicyclo[2.2.1]heptane-2-carboxylic acid [4-(4-fluoro-phenoxy)-phenyl]-amide] | – | 340 |
| CC(c1ccccc1C(F)(F)F)N1CC2CC1CN2C(=O)Nc1ccc(C(F)(F)F)cc1 (single isomer, unassigned) [Example 54, 5-[1-(2-Trifluoromethyl-phenyl)-ethyl]-2,5-diaza-bicyclo[2.2.1]heptane-2-carboxylic acid (4-trifluoromethyl-phenyl)-amide] | 1750 | – |
| CC(c1ccccc1C(F)(F)F)N1CC2CC1CN2C(=O)Nc1ccc(C(F)(F)F)cc1 (single isomer, unassigned) [Example 56, 5-[1-(2-Trifluoromethyl-phenyl)-ethyl]-2,5-diaza-bicyclo[2.2.1]heptane-2-carboxylic acid (4-trifluoromethyl-phenyl)-amide] | 7910 | – |
| CC(c1ccccc1C(F)(F)F)N1CC2CC1CN2C(=O)Nc1ccc(Oc2ccccc2)cc1 (single isomer, unassigned) [Example 60, 5-[1-(2-Trifluoromethyl-phenyl)-ethyl]-2,5-diaza-bicyclo[2.2.1]heptane-2-carboxylic acid (4-phenoxy-phenyl)-amide] | 1480 | – |
| CC(c1ccccc1C(F)(F)F)N1CC2CC1CN2C(=O)Nc1ccc(Oc2ccccc2)cc1 (single isomer, unassigned) [Example 62, 5-[1-(2-Trifluoromethyl-phenyl)-ethyl]-2,5-diaza-bicyclo[2.2.1]heptane-2-carboxylic acid (4-phenoxy-phenyl)-amide] | 17200 | – |
| CC(c1ccccc1Cl)N1CC2CC1CN2C(=O)Nc1ccc(Oc2ccc(F)cc2)cc1 (single isomer, unassigned) [Example 73, 5-[1-(2-Chloro-phenyl)-ethyl]-2,5-diaza-bicyclo[2.2.1]heptane-2-carboxylic acid [4-(4-fluoro-phenoxy)-phenyl]-amide] | 1130 | – |
| Cc1ccccc1C(C)N1CC2CC1CN2C(=O)Nc1ccc(Oc2ccc(F)cc2)cc1 (single isomer, unassigned) [Example 74, 5-(1-o-Tolyl-ethyl)-2,5-diaza-bicyclo[2.2.1]heptane-2-carboxylic acid [4-(4-fluoro-phenoxy)-phenyl]-amide] | – | 110 |
| CC(c1ccccc1Cl)N1CC2CC1CN2C(=O)Nc1ccc(Oc2ccc(F)cc2)cc1 (single isomer, unassigned) [Example 76, 5-[1-(2-Chloro-phenyl)-ethyl]-2,5-diaza-bicyclo[2.2.1]heptane-2-carboxylic acid [4-(4-fluoro-phenoxy)-phenyl]-amide] | 270 | – |
| CC(c1ccc(F)cc1Cl)N1CC2CC1CN2C(=O)Cc1ccc(Oc2ccc(F)cc2)cc1 (single isomer, unassigned) [Example 161, 1-{5-[1-(2-Chloro-4-fluoro-phenyl)-ethyl]-2,5-diaza-bicyclo[2.2.1]hept-2-yl}-2-[4-(4-fluoro-phenoxy)-phenyl]-ethanone] | – | 4750 |
| CC(c1ccc(F)cc1Cl)N1CC2CC1CN2C(=O)Cc1ccc(Oc2ccc(F)cc2)cc1 (single isomer, unassigned) [Example 162, 1-{5-[1-(2-Chloro-4-fluoro-phenyl)-ethyl]-2,5-diaza-bicyclo[2.2.1]hept-2-yl}-2-[4-(4-fluoro-phenoxy)-phenyl]-ethanone] | – | 18300 |
| CC(c1c(F)cccc1Cl)N1CC2CC1CN2C(=O)Cc1ccc(Oc2ccc(F)cc2)cc1 (single isomer, unassigned) [Example 165, 1-{5-[1-(2-Chloro-6-fluoro-phenyl)-ethyl]-2,5-diaza-bicyclo[2.2.1]hept-2-yl}-2-[4-(4-fluoro-phenoxy)-phenyl]-ethanone] | – | 1230 |
| CC(c1c(F)cccc1Cl)N1CC2CC1CN2C(=O)Cc1ccc(Oc2ccc(F)cc2)cc1 (single isomer, unassigned) [Example 166, 1-{5-[1-(2-Chloro-6-fluoro-phenyl)-ethyl]-2,5-diaza-bicyclo[2.2.1]hept-2-yl}-2-[4-(4-fluoro-phenoxy)-phenyl]-ethanone] | – | 3910 |
| CC(c1ccccc1Cl)N1CC2CC1CN2C(=O)c1ccc(Oc2ccc(F)cc2)c(F)c1 (single isomer, unassigned) [Example 176, {5-[1-(2-Chloro-phenyl)-ethyl]-2,5-diaza-bicyclo[2.2.1]hept-2-yl}-[3-fluoro-4-(4-fluoro-phenoxy)-phenyl]-methanone] | 430 | – |
| CC(c1ccccc1Cl)N1CC2CC1CN2C(=O)c1ccc(Oc2ccc(F)cc2)c(F)c1 (single isomer, unassigned) [Example 177, {5-[1-(2-Chloro-phenyl)-ethyl]-2,5-diaza-bicyclo[2.2.1]hept-2-yl}-[3-fluoro-4-(4-fluoro-phenoxy)-phenyl]-methanone] | 740 | – |
| Cc1ccsc1CN1CC2CC1CN2C(=O)Nc1ccc(Oc2ccccc2)cc1 (centres unmarked) [Example 1, 5-(3-Methyl-thiophen-2-ylmethyl)-2,5-diaza-bicyclo[2.2.1]heptane-2-carboxylic acid (4-phenoxy-phenyl)-amide] | 410 | – |
| Cc1ccsc1CN1CC2CC1CN2C(=O)Nc1ccc(Oc2ccccc2)nc1 (centres unmarked) [Example 2, 5-(3-Methyl-thiophen-2-ylmethyl)-2,5-diaza-bicyclo[2.2.1]heptane-2-carboxylic acid (6-phenoxy-pyridin-3-yl)-amide] | 3740 | – |
| CCCCOc1ccc(NC(=O)N2CC3CC2CN3Cc2sccc2C)cc1 (centres unmarked) [Example 3, 5-(3-Methyl-thiophen-2-ylmethyl)-2,5-diaza-bicyclo[2.2.1]heptane-2-carboxylic acid (4-butoxy-phenyl)-amide] | 1030 | – |
| Cc1ccccc1C(C)N1CC2CC1CN2C(=O)Nc1ccc(Oc2ccccc2)cc1 (centres unmarked) [Example 4, 5-(1-o-Tolyl-ethyl)-2,5-diaza-bicyclo[2.2.1]heptane-2-carboxylic acid (4-phenoxy-phenyl)-amide] | 320 | – |
| CCCCOc1ccc(NC(=O)N2CC3CC2CN3C(C)c2ccccc2C)cc1 (centres unmarked) [Example 5, 5-(1-o-Tolyl-ethyl)-2,5-diaza-bicyclo[2.2.1]heptane-2-carboxylic acid (4-butoxy-phenyl)-amide] | 570 | – |
| Cc1ccccc1C(C)N1CC2CC1CN2C(=O)Nc1ccc(C(F)(F)F)cc1 (centres unmarked) [Example 6, 5-(1-o-Tolyl-ethyl)-2,5-diaza-bicyclo[2.2.1]heptane-2-carboxylic acid (4-trifluoromethyl-phenyl)-amide] | 990 | – |
